Columns and labels:
[1] = target: T1, influenza A virus (IAV) PA-Nter fragment (amino acids 1-209) (Influenza A virus, UniProt P31343); experiment: FRET endonuclease activity assay; assay type: biochemical; settings: PA-Nter 0.5 μM, 1.6 μM RNA substrate
T1 construct: PA-Nter fragment (amino acids 1-209); made in house

[2] = tested on: influenza A virus A/Aichi/2/68 (H3N2) on MDCK cells; experiment: Cytopathic effect (CPE) assay; assay type: cell-based; settings: Influenza A virus, 48 hrs, the 1st table

SMILES	IC50 [1] [µM]	IC50 [2] [µM]	FRET IC50 [1]
CN1CCn2c(CNS(=O)(=O)c3ccccc3)cc(=O)c(O)c2C1=O	0.027	> 50	
CC(C)N1CCn2c(CNS(=O)(=O)c3ccccc3)cc(=O)c(O)c2C1=O	0.13	> 50	
CC(C)N1CCn2c(CNS(=O)(=O)c3ccccc3Cl)cc(=O)c(O)c2C1=O	0.087	> 50	
CC(C)N1CCn2c(CNS(=O)(=O)c3cccc(Cl)c3)cc(=O)c(O)c2C1=O	0.062	> 50	
CC(C)N1CCn2c(CNS(=O)(=O)c3ccc(Cl)cc3)cc(=O)c(O)c2C1=O	0.209	> 50	
CC(C)N1CCn2c(CNS(=O)(=O)c3cccc(F)c3)cc(=O)c(O)c2C1=O	0.153	> 50	
CC(C)N1CCn2c(CNS(=O)(=O)c3ccccc3F)cc(=O)c(O)c2C1=O	0.104	> 50	
CC(C)N1CCn2c(CNS(=O)(=O)c3ccc(C#N)cc3)cc(=O)c(O)c2C1=O	0.322	> 50	
Cc1ccc(S(=O)(=O)NCc2cc(=O)c(O)c3n2CCN(C(C)C)C3=O)cc1	0.203	> 50	
CC(C)N1CCn2c(CNS(=O)(=O)Cc3ccc(Cl)cc3)cc(=O)c(O)c2C1=O	0.603	> 50	
CC(C)N1CCn2c(CNS(=O)(=O)Cc3ccccc3)cc(=O)c(O)c2C1=O	0.187	> 50	
CC(C)N1CCn2c(CNS(=O)(=O)c3c(Cl)cccc3Cl)cc(=O)c(O)c2C1=O	0.119	> 50	
CC(C)N1CCn2c(CN(Cc3ccccc3)c3ccccc3)cc(=O)c(O)c2C1=O	1.18		
CCCN(Cc1cc(=O)c(O)c2n1CCN(C(C)C)C2=O)C(C)=O		> 50	
CCCN(Cc1cc(=O)c(O)c2n1CCN(C(C)C)C2=O)C(=O)C1CC1		> 50	
CCCN(Cc1cc(=O)c(O)c2n1CCN(C(C)C)C2=O)C(=O)c1ccccc1		> 50	
CCCN(Cc1cc(=O)c(O)c2n1CCN(C(C)C)C2=O)C(=O)C1CCCCC1		> 50	

SMILES	IC50 [1] [µM]	IC50 [2] [µM]	FRET IC50 [1]
CC(C)N1CCn2c(CNC(=O)C3CC(F)(F)C3)cc(=O)c(O)c2C1=O		> 50	
CC(C)N1CCn2c(CNC3(c4ccccc4)CCCC3)cc(=O)c(O)c2C1=O		> 50	
CC(C)N1CCn2c(CN(Cc3cccc4ccccc34)C3CC3)cc(=O)c(O)c2C1=O		> 50	
CC(C)N1CCn2c(CN(Cc3ccccc3-c3ccccc3)C3CC3)cc(=O)c(O)c2C1=O		> 50	
CC(C)N1CCn2c(CNC(=O)c3ccccc3)cc(=O)c(O)c2C1=O		> 50	insoluble
CC(C)N1CCn2c(CNC(=O)CC3CC3)cc(=O)c(O)c2C1=O	0.3	> 50	
CC(C)N1CCn2c(CNC(=O)CC(F)(F)F)cc(=O)c(O)c2C1=O	0.32	> 50	
CC(C)N1CCn2c(CNC(=O)CCC(F)(F)F)cc(=O)c(O)c2C1=O	0.25	> 50	
CC(C)N1CCn2c(CNC(=O)CC34C[C@H]5C[C@@H](C3)C[C@@H](C4)C5)cc(=O)c(O)c2C1=O	1.68	> 50	
CC(C)N1CCn2c(CNC(=O)C34CCC(CO)(CC3)CC4)cc(=O)c(O)c2C1=O	1.87	> 50	
CC(C)N1CCn2c(CNC(=O)C3(c4ccc(Cl)cc4)CCCC3)cc(=O)c(O)c2C1=O	0.84	> 50	
CC(C)N1CCn2c(CNC(=O)c3ccc(C#N)cc3)cc(=O)c(O)c2C1=O	0.4	> 50	
CC(C)N1CCn2c(CNC(=O)c3ccc(C(F)(F)F)cc3)cc(=O)c(O)c2C1=O	9.45	> 50	
CC(C)N1CCn2c(CNC(=O)[C@]34C[C@H]5C[C@H](C[C@H](C5)C3)C4)cc(=O)c(O)c2C1=O	1.43	> 50	
CC(C)N1CCn2c(CNC(=O)CC(C)(C)C)cc(=O)c(O)c2C1=O	0.38	> 50	
CC(C)N1CCn2c(CNC(=O)C3CCCCC3)cc(=O)c(O)c2C1=O	0.36	> 50	
CC(C)N1CCn2c(CNC(=O)C3CC3)cc(=O)c(O)c2C1=O	0.35	> 50	

Source: US20160002226A1, “PYRI[…] AND THEIR USE IN THE TREATMENT, AMELIORATION OR PREVENTION OF INFLUENZA” (F. Hoffmann-La Roche AG, priority 2014, published 2016)
